We go through three compounds from PMC12196458, “An Alternative Mechanism of Glutamate Dehydrogenase Inhibition by EGCG: Promotion of Protein Degradation” (Pharmaceuticals, 2025).

The target in one experiment is T1, wild-type hGDH (Homo sapiens, UniProt P00367).
T1 construct: confirming that these are the full-length wild-type hGDH; made in house; host or cells: E. coli BL21 (pET-30a)
The experiment is described as follows: Biolayer interference-based binding assay (Ni-NTA biosensor), wild-type hGDH. As to conditions: His-tagged wild-type hGDH 20 μg/mL on Ni-NTA biosensor; read-out: estimated KD. As to the method: (§1) After immobilization of His-tagged wild-type GDH or hGDHH454Y (20 μg/mL) on a Ni-NTA biosensor, the probe was immersed in a series of dilutions of EGCG to measure binding.
(§2) The inhibitor/substrate binding assays were performed in 3 steps: step one is coating the Ni-NTA biosensor with the human wild type and the mutant GDH proteins (20 μg/mL) for 30 min; step two is dipping the coated individual sensor into a series dilution of substrates or inhibitors, such as EGCG (0, 1, 10, 100, 1000, 10000 μM; 10-fold dilution) or trypsin (0, 0.08, 0.25, 0.75, 2.25, 6.75 μM; 3-fold dilution) for 100 s, to obtain the on-rate (kon); step three is dipping to wash with phosphate-buffered saline (PBS) for 100 s. to measure the off-rate (koff). The KD was calculated by dividing […].

The target in experiment [1] is T2, bovine GDH (Bos taurus, UniProt P00366).
T2 construct: purchased
The experiment is described as follows: GDH inhibition assay (EZMTT detection). The class given is biochemical. As to conditions: for increase in IC50 on increasing GDH concentration by 8 times: 0.3 to 2.5 mg/mL GDH. As to the method: Since both GTP and EGCG are known allosteric GDH inhibitors, we tested their dose-dependent inhibition of different levels of GDH protein. […] EGCG inhibition of GDH is less affected by the GDH enzyme concentration.
[…] After 0.5 h pre-incubation, a mixture of Glu (10 mM final), NADP^+ ([…]), and the EZMTT detection reagent were added to each well, and the reaction was carried out at room temperature for 1 h before the absorbance measurement at 450 nm. To exclude assay artifacts, controls with no GDH were also used, and all experiments were carried out in triplicate and repeated 3 times.

For experiment [2], the target named is T3, hGDHH454Y (Homo sapiens, UniProt P00367, H507Y).
T3 construct: made in house; host or cells: E. coli BL21 codon plus (pET-30a)
The experiment is described as follows: Trypsin degradation assay of hGDHH454Y (SDS-PAGE gel). The class given is biochemical. How it is done: (§3) Trypsin (final concentration 20 μg/mL) were mixed with 1 mg/mL (final concentration) hGDH-H454Y or bovine-GDH or BSA, respectively, in Eppendorf (EP) tubes in a phosphate buffer (pH8; 10 mM Na3PO4, 50 mM K3PO4, 100 mM NH4HCO3, 0.1% Tween80 and 0.1% Tween). Then proteins were subjected to digestion in a wet chamber at 37 °C for 1 h. Each sample was analyzed by denaturing SDS-PAGE gel. All experiments were repeated 3 times.
(§4) 2.5 mg/mL bovine GDH (final concentration) or 2.5 mg/mL BSA proteins were mixed with various compounds (10 mM or 50 mM GTP; 0.05 mM or 5 mM EGCG) in EP tubes at room temperature for 1 h. To each tube, 20 μg/mL trypsin was added, and the reaction was carried out in a wet chamber at 37 °C for 1 h. Samples were analyzed by both denaturing SDS-PAGE gel and native-PAGE gel. All experiments were repeated 3 times.
(§5) The dried gel was placed in the imager and photographed after the bands were clear. The gray value of the bands was calculated on a uniform background using Image-J software (1.53a). The ratio of the gray value of the strips under each experimental condition to the gray value of the control strips was calculated, as it is the relative gray value of the strips under that experimental condition.

Experiment [3] deals with T2, bovine GDH. Briefly: Trypsin degradation assay of bovine GDH (SDS-PAGE gel). The class given is biochemical. As to conditions: 20 μg/mL trypsin; for effect on trypsin digestion of Bo.GDH: low and high concentrations (GTP 10 or 50 mM; EGCG 0.05 or 5 mM), 37 °C 1 h. How it is done:
as §3, §4, §5

Experiment [4] addresses T3, hGDHH454Y. The experiment is described as follows: Biolayer interference-based binding assay (Ni-NTA biosensor), hGDHH454Y. As to conditions: His-tagged hGDHH454Y 20 μg/mL on Ni-NTA biosensor; read-out: estimated KD. As to the method:
as §1, §2

Experiment [5] concerns hGDHH454Y. The experiment is described as above. On the set-up: species or system human. As to conditions: KD hGDHH454Y versus wild-type. As to the method:
as §1, §2

A further experiment addresses T4, bovine GDH hexamer (Bos taurus, UniProt P00366).
T4 construct: purchased
The experiment is described as follows: Native-PAGE gel analysis of interaction of EGCG, bovine GDH and trypsin. The experiment is classed as biochemical.
From the text: To further understand the mechanism of EGCG promoting GDH protein degradation, we investigated the interactions among EGCG, GDH, and trypsin by native gel analysis. Because the bovine GDH protein sequence shares 98% homology with the human GDH sequence and 100% homology similarity in the substrate and regulatory binding sites, we used bovine GDH as a substitute for wild-type human GDH in our studies. […] Taken together, the mechanism might be the following: binding of EGCG to hexametric GDH breaks down the hexamer into monomers, and further EGCG–trypsin complex facilitates the GDH degradation.
as §4, §5

In a further experiment the target is T5, BSA (Bos taurus, UniProt P02769).
T5 construct: purchased Biosharp
Briefly: Trypsin degradation assay of BSA (SDS-PAGE gel). The class given is biochemical, bovine. How it is done: as §3, §4, §5

The mark [6] stands for this setting: high concentrations: 50 mM GTP, 5 mM EGCG.
Where [7] appears, read: lower concentrations: GTP 10 mM, EGCG 0.05 mM.
The mark [8] stands for this setting: 20 μg/mL trypsin, 1 mg/mL protein, 1 h.

T4 sequence (P00366 58-558): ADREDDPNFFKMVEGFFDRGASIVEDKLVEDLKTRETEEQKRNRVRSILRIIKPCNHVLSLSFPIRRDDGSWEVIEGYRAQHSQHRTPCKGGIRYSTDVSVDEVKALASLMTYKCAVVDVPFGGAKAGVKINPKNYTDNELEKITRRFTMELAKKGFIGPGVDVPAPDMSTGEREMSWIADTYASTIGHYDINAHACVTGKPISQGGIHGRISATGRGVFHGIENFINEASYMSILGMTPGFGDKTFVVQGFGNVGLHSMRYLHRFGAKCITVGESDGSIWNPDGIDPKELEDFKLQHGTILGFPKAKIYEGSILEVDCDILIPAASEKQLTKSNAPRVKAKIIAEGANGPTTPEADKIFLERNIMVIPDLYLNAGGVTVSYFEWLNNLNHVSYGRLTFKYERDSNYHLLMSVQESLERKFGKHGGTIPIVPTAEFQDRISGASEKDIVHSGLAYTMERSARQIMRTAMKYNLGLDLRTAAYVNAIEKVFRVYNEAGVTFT
T2 sequence (P00366 58-558): as above
T5 sequence (P02769 25-607): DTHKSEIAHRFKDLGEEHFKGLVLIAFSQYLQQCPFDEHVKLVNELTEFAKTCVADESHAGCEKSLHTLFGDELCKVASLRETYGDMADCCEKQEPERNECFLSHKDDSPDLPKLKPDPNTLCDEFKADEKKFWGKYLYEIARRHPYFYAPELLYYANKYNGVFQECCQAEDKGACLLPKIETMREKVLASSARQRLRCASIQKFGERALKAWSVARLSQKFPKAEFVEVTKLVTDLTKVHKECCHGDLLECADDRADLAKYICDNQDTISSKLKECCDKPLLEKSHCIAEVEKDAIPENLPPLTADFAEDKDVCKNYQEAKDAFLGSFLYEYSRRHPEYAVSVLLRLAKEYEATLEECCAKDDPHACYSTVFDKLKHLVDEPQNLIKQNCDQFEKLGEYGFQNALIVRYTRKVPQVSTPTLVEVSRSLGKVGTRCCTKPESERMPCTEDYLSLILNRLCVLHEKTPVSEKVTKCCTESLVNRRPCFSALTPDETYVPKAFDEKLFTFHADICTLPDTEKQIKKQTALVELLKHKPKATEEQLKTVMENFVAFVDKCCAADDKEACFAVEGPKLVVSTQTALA
T3 sequence (P00367 54-558 H507Y): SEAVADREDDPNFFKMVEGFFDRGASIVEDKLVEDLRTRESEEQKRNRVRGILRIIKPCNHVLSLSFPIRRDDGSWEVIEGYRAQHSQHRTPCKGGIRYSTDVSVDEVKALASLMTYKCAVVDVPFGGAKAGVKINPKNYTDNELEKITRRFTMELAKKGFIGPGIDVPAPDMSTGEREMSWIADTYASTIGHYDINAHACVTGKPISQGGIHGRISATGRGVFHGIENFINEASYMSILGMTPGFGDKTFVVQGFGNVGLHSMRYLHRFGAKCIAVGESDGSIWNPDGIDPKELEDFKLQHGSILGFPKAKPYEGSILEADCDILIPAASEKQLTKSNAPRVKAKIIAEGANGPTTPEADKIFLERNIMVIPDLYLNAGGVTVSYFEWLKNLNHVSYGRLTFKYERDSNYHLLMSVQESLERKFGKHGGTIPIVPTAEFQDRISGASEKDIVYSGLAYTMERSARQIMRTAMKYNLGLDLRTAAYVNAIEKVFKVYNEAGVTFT
T1 sequence (P00367 54-558): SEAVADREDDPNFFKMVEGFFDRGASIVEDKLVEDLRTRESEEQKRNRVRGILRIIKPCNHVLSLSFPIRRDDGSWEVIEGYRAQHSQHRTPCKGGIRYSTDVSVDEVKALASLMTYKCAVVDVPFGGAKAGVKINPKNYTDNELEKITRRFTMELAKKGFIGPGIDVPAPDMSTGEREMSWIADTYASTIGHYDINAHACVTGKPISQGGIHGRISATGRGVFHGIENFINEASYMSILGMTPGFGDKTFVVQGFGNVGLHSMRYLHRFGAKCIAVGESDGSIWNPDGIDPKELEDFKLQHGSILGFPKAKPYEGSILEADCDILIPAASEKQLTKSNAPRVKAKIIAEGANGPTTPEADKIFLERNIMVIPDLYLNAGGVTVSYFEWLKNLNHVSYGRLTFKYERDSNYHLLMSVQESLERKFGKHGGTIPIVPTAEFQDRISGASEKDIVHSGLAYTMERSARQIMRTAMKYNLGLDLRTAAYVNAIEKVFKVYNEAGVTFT

On to `O=C(O[C@@H]1Cc2c(O)cc(O)cc2O[C@@H]1c1cc(O)c(O)c(O)c1)c1cc(O)c(O)c(O)c1` [EGCG, (−)-cis-2-(3,4,5-trihydroxyphenyl)-3,4-dihydro-1(2H)-benzopyran-3,5,7-triol 3-gallate], for which the values for the Kd on wild-type hGDH and at hGDHH454Y [4] were 4.2 µM and 68 µM, respectively. On bovine GDH [1], the “increase in IC50 on increasing GDH concentration by 8 times” value stood at 50 fold. For the same compound, the half-inhibitory concentration (IC50) at bovine GDH [1] (bovine GDH 0.3 mg/mL) stood at 2.7 µM; on bovine GDH [1] (bovine GDH 2.5 mg/mL) it was 138 µM. Also, at hGDHH454Y [2] (5 mM EGCG), the “effect on hGDHH454Y hydrolysis by trypsin” value is recorded as “promote”. Moreover, on bovine GDH [3], the “effect on trypsin digestion of Bo.GDH” value is reported as “greatly increased trypsin digestion in a dose-dependent manner”. Besides, the “fold stronger affinity (KD) for wild-type GDH than for the H454Y mutant” value with hGDHH454Y [5] is reported as 17 fold. Further, the “effect on hexamers of bovine GDH” value at bovine GDH hexamer (5 mM EGCG) was “converted to monomers”. Besides, the “monomeric GDH degradation by trypsin” value on bovine GDH hexamer (5 mM EGCG added to GDH and 20 μg/mL trypsin) is “more monomeric GDH degradation was observed”. Moreover, the “effect on trypsin digestion of BSA” value at BSA (setting [6]) is given as “promoted BSA degradation”; on BSA (setting [7]) it was “essentially no significant effect”.
As to `Nc1nc2c(ncn2[C@@H]2O[C@H](COP(=O)(O)OP(=O)(O)OP(=O)(O)O)[C@@H](O)[C@H]2O)c(=O)[nH]1` [GTP], the “increase in IC50 on increasing GDH concentration by 8 times” value at bovine GDH [1] worked out at 1000 fold. Besides, the IC50 was found to be 16 µM at bovine GDH [1] (bovine GDH 0.3 mg/mL) and 16900 µM against bovine GDH [1] (bovine GDH 2.5 mg/mL). The “effect on hGDHH454Y hydrolysis by trypsin” value at hGDHH454Y [2] (GTP up to 50 mM) is “no effect”. In addition, at bovine GDH [3], the “effect on trypsin digestion of Bo.GDH” value is “prevented the trypsin digestion”. Besides, the “effect on trypsin digestion of BSA” value on BSA (setting [6]) is “prevented BSA digestion”; at BSA (setting [7]) it was “essentially no significant effect”.
For the compound Trypsin, the Kd is less than 1e-06 µM on wild-type hGDH and 1500 µM at hGDHH454Y [4]. Also, the “degradation by trypsin alone” value on hGDHH454Y [2] (setting [8]) is reported as “did not show observable degradation”; on bovine GDH [3] (1 mg/mL protein, 1 h) it was “significant hydrolysis”; at BSA (setting [8]), “significant hydrolysis”. The “fold stronger affinity (KD) for wild-type GDH than for the H454Y mutant” value in the experiment on hGDHH454Y [5] is on record as 10^9 fold. In addition, at bovine GDH hexamer (trypsin 20–500 μg/mL), the “effect on hexamers of bovine GDH” value was “converted to monomers”.

As a reminder, the Kd is the concentration at which binding is half-saturated. As usually defined, the IC50 is the point on the concentration scale where inhibition reaches its midpoint. Low values mean higher potency, high ones lower potency.
